Laboratory results published in ChEMBL document CHEMBL1157308, “Daphniyunnines A-E, alkaloids from Daphniphyllum yunnanense” (J Nat Prod, 2006).
pIC50: −log10 of the molar value.

Legend:
P388 = assay: Cytotoxicity against mouse P388 cells; assay type: functional, cell-based
A549 = assay: Cytotoxicity against human A549 cells; assay type: functional, cell-based

Question: `C[C@@H]1CN2C[C@H]3CCC4=C5[C@@](O)(CC[C@@]56C(=O)[C@@H]1C[C@@H]2[C@@]36C)CC4=O` [DAPHNIYUNNINE D] was tested. Which pIC50 (P388) did it give?
Answer: The pIC50 was 5.52.

Question: What about the pIC50 (A549) of the same molecule?
Answer: The pIC50 was 6.22.
